Patent US11312713B2, “Imidazo[4,5-C]quinoline derivatives as LRRK2 inhibitors” (Pfizer Inc., priority 2017, dated 2022)
Read-outs that look alike come from different tables or passages of the source.

Experiments:
[1] = target: LRRK2, WT (GST-tagged truncated LRRK2) (Homo sapiens, UniProt Q5S007); experiment: LRRK2 kinase assay (LanthaScreen), wild type; format: biochemical; settings: LanthaScreen, LRRKtide substrate
Method in brief: (§1)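 GST-tagged truncated enzyme (2 μg/mL) phosphorylates 100 nM fluorescein-LRRKtide with 1 mM ATP in HEPES pH 7.5, 3 mM MgCl2, DTT, Brij35; 30 min, room temperature, compound dose response top 3 μM. Stopped with EDTA; phospho-ERM detected by terbium anti-phospho-ERM TR-FRET; identical conditions for both enzymes.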

mutant G2019S LRRK2 = mutant G2019S LRRK2 (Homo sapiens (Human), UniProt Q5S007, G2019S); experiment: LRRK2 kinase assay (LanthaScreen), G2019S mutant; format: biochemical; settings: LanthaScreen, LRRKtide substrate
mutant G2019S LRRK2, sequence (Q5S007 whole entry G2019S): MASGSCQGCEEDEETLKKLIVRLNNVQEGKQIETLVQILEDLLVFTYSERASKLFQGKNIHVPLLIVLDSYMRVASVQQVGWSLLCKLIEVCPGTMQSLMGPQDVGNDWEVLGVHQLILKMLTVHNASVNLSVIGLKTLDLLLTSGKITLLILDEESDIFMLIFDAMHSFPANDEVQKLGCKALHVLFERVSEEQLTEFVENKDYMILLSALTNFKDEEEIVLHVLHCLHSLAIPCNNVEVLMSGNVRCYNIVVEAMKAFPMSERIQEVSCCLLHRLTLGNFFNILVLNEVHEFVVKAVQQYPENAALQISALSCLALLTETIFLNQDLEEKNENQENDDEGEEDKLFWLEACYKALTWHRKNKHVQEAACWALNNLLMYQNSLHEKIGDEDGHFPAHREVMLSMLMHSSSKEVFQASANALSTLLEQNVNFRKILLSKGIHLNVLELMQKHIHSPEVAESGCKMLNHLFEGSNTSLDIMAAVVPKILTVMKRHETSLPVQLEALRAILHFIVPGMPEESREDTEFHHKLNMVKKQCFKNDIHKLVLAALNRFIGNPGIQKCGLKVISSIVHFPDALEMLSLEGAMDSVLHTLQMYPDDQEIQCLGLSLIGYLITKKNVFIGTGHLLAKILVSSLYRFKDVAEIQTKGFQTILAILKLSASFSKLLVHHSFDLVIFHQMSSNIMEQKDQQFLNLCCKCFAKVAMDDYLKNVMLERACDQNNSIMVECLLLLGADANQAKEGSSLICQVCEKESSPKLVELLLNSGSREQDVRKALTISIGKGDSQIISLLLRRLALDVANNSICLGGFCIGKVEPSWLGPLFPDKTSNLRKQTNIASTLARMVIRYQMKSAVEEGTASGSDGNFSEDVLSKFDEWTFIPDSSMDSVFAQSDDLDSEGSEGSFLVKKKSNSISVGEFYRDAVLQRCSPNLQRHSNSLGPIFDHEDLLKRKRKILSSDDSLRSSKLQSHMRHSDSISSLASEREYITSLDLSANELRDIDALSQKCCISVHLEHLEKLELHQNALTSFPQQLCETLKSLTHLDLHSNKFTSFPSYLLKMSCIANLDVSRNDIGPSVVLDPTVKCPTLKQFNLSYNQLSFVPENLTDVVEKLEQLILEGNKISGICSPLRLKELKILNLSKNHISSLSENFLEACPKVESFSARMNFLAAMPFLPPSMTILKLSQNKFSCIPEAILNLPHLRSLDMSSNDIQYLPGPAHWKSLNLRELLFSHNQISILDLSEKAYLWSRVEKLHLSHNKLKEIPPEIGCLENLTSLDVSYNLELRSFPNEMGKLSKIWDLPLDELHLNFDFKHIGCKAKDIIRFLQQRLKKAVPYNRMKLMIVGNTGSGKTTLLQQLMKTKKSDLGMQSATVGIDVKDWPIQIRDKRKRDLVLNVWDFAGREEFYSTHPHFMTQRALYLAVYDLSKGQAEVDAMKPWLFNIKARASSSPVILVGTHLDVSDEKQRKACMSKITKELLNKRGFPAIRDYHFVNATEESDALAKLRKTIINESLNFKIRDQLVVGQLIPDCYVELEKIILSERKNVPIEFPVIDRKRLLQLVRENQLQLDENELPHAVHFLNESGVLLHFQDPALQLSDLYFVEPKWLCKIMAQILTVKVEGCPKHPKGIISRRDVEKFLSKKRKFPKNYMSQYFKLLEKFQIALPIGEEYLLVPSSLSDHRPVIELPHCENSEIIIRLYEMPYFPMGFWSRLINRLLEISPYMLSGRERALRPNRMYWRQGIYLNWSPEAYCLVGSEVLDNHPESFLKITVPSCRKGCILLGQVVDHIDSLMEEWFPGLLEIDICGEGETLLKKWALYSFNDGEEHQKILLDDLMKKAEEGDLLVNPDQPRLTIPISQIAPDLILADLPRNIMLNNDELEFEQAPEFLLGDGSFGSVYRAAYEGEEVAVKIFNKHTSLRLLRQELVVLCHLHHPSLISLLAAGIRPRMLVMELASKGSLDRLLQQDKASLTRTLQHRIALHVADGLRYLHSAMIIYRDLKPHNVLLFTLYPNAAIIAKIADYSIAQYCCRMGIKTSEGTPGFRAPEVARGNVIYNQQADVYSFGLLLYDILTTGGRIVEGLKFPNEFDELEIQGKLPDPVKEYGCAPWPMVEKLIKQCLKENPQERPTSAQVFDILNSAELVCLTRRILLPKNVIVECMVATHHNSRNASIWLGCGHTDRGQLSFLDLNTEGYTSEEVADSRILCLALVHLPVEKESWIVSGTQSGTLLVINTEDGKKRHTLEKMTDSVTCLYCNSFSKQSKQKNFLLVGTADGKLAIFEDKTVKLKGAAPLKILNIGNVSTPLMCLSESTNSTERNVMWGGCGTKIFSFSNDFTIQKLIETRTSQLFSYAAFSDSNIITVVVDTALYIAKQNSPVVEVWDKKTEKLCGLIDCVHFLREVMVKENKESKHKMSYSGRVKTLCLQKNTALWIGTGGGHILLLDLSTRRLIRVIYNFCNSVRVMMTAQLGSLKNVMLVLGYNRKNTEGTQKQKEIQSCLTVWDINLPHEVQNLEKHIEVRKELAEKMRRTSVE
Method in brief: as §1

[2] = Human liver microsomes enzyme kinetics (metabolite formation); format: in vitro ADME
Experimental: Human Liver Microsomes Enzyme Kinetics
Incubations (in triplicate) contained 95A or 96 (1-1000 μM, final concentrations), pooled human liver microsomes (BD Biosciences, Bedford, Mass., 0.25 protein concentration, NADPH (1.3 mM), magnesium chrolide (5 mM) and potassium phosphate buffer (100 mM, pH 7.4). The final reaction volume (100 μL) contained 1 acetonitrile. The incubations were conducted at 37° C. At time points of 15 minutes for 95A, or 30 min for 96, 50 μL of incubate was quenched by the addition of 200 μL of cold acetonitrile containing 0.1% formic acid (v/v) and mass spectrometry (MS) internal standard. Quenched samples were vortexed for 1 minute followed by centrifugation at 3000 rpm for 5 minutes at room temperature (Allegra X-12R, Beckman Coulter, Fullerton, Calif.). The supernatant (150 μL) was placed into a clean injection sample block and dried down under nitrogen gas, then reconstituted with 150 μL of water containing 0.1% formic acid (v/v). The plates were capped and vortexed for 1 minute and subsequently analyzed using LC-MS/MS as described below. Formation of metabolites 95 (from substrate 95A) and 96B (from substrate 96) was quantitated using a standard curve (0.5-5000 nM) generated using a synthetic standard of substrate 95. Standard curve samples were prepared, processed, and analyzed as described above.
(§2) Disappearance of substrates 95A and 96 and formation of metabolites 95 or 96B were determined using an LC-MS/MS system which is comprised of an AB Sciex 6500 triple quadrupole mass spectrometer equipped with an electrospray source (AB Sciex, Framingham, Mass.) and Agilent Technologies Infinity 1290 (Santa Clara, Calif.). A binary gradient was employed with a flow rate of 0.500 mL/min, using 0.1% formic acid in water as the aqueous mobile phase (solvent A) and 0.1% formic acid in acetonitrile (solvent B) as the organic phase. The LC gradient profile begins at 5% solvent B which was ramped to 98% B over 2 minutes and then held for 0.20 minutes and returned to initial conditions (5% B) over 0.5 minutes, for a total run time of 3.00 minutes. The analytical column used was a Phenomenex Kinetex 2.6 μm, 2.1×50 mm (Phenomenex, Torrance, Calif.), with an injection volume of 10 μL. The mass spectrometer was run under positive mode with the source temperature set to 500° C., ionization voltage set to 4.5 kV. The following MS/MS transitions were utilized: for substrate 95A (408→310), substrate 96 (411→313), metabolite 95 (424→326), and metabolite 96B (426→328). Analytes were quantified using Analyst software, version 1.6.2 or earlier (AB Sciex, Framingham, Mass.).

[3] = Intrinsic clearance (CLint) in human liver microsomes; format: in vitro ADME; settings: for microsomal CLint at 1 μM / half-life at 1 μM: human, liver microsomes, pH 7.4, human liver microsomes; for half-life at 1 μM: read-out: T½; for Rate of metabolite / intrinsic clearance in comparison to undeuterated form (95A) / rate of metabolite formation in comparison to undeuterated form (95A): human liver microsomes
Experimental: Intrinsic Clearance (CLint) in Human Liver Microsomes
(§3) The final reaction volume (500 μL) contained 0.003% DMSO, 0.5% acetonitrile. The incubations were conducted at 37° C. and aliquots (50 μL) were removed at 0, 5, 10, 15, 20, 30, 45 and 60 minutes and quenched by addition to cold acetonitrile containing mass spectrometry (MS) internal standard (200 μL). Quenched incubations were vortex for 1 minute followed by centrifugation at 3000 rpm for 5 minutes at room temperature (Allegra X-12R, Beckman Coulter, Fullerton, Calif.). The supernatant (150 μL) was then removed and added to a 96-deep well injection plate containing 150 μL of water with 0.1% formic acid (v/v), the plates were capped and vortex for 1 minute and subsequently analyzed using LC-MS/MS as described below. Control incubations were prepared similar without adding the NADPH cofactor to monitor for any non-CYP/FMO metabolism. Discrete standard curves (0.5-2000 nM) were prepared, processed, and analyzed as described above.
as §2

[4] = Intrinsic clearance (CLint) in cynomolgus monkey liver microsomes; format: in vitro ADME; settings: for microsomal CLint at 1 μM / half-life at 1 μM: monkey, liver microsomes, pH 7.4, monkey liver microsomes; for half-life at 1 μM: read-out: T½; for Rate of metabolite / intrinsic clearance in comparison to undeuterated form (95A) / rate of metabolite formation in comparison to undeuterated form (95A): monkey liver microsomes
Experimental: Intrinsic Clearance (CLint) in Cynomolgus Monkey Liver Microsomes
as §3, with “Incubations (in duplicate) contained either 95A or 96, or both 95A and 96 at final concentrations of 1 μM, pooled cynomolgus monkey liver microsomes (Xenotech, LLC, Lenexa, Kans., 0.25 μM CYP protein equivalent to 0.21 mg/mL protein concentration), NADPH (1.3 mM), magnesium chloride (3.3 mM) and potassium phosphate buffer (100 mM, pH 7.4). The final” for “The final”, “incubations were vortexed for 1” for “incubations were vortex for 1”, “formic acid (v/v). The plates were” for “formic acid (v/v), the plates were”, “capped and vortexed for 1” for “capped and vortex for 1”
as §2

[5] = G2019S mutant LRRK2, read-out: LRRK2, G2019S IC50
[6] = formation of metabolite 95 (from 95A) or 96B (from 96), human liver microsomes
[7] = combined substrates 95A and 96 - competition
[8] = combined substrates (competition)
[9] = individual substrates, metabolite 95 from 95A, 96B from 96

SMILES: Cc1cn(Cc2nc3cnc4ccc(C(F)F)cc4c3n2[C@@H]2CCO[C@H](C)C2)nn1 [Example 90, 8-(difluoromethyl)-1-[(2R,4R)-2-methyltetrahydro-2H-pyran-4-yl]-2-[(4-methyl-1H-1,2,3-triazol-1-yl)methyl]-1H-imidazo[4,5-c]quinoline]
- IC50 ([1]; wild type LRRK2): 14.7 nM
- IC50 (mutant G2019S LRRK2; [5]): 7.32 nM

SMILES: Cc1cc(Cc2nc3cnc4ccc(C(F)F)cc4c3n2[C@@H]2CCO[C@H](C)C2)no1 [Example 91, 8-(difluoromethyl)-2-[(5-methyl-1,2-oxazol-3-yl)methyl]-1-[(2R,4R)-2-methyltetrahydro-2H-pyran-4-yl]-1H-imidazo[4,5-c]quinoline]
- IC50 ([1]; wild type LRRK2): 18 nM
- IC50 (mutant G2019S LRRK2; [5]): 8.4 nM

SMILES: Cc1nnc(Cc2nc3cnc4ccc(Cl)cc4c3n2C2CCOCC2(F)F)s1 (stereo not drawn) [Example 92, 8-chloro-1-(3,3-difluorotetrahydro-2H-pyran-4-yl)-2-[(5-methyl-1,3,4-thiadiazol-2-yl)methyl]-1H-imidazo[4,5-c]quinoline]
- IC50 ([1]; wild type LRRK2): 10.9 nM
- IC50 (mutant G2019S LRRK2; [5]): 6.91 nM

SMILES: FC1(F)COCCC1n1c(Cn2cncn2)nc2cnc3ccc(Cl)cc3c21 (stereo not drawn) [Example 93, 8-chloro-1-(3,3-difluorotetrahydro-2H-pyran-4-yl)-2-(1H-1,2,4-triazol-1-ylmethyl)-1H-imidazo[4,5-c]quinoline]
- IC50 ([1]; 1 mM ATP): 11 nM
- IC50 ([1]; wild type LRRK2): 11.9 nM
- IC50 (mutant G2019S LRRK2; [5]): 8.7 nM

SMILES: FC1(F)COCCC1n1c(Cn2cc(C3CC3)nn2)nc2cnc3ccc(Cl)cc3c21 (stereo not drawn) [Example 94, 8-chloro-2-[(4-cyclopropyl-1H-1,2,3-triazol-1-yl)methyl]-1-(3,3-difluorotetrahydro-2H-pyran-4-yl)-1H-imidazo[4,5-c]quinolone]
- IC50 ([1]; wild type LRRK2): 6.35 nM
- IC50 (mutant G2019S LRRK2; [5]): 6.48 nM

SMILES: C[C@@H]1C[C@H](n2c(Cc3cnc(CO)cn3)nc3cnc4ccc(Cl)cc4c32)CCO1 [Example 95, [5-({8-chloro-1-[(2R,4R)-2-methyltetrahydro-2H-pyran-4-yl]-1H-imidazo[4,5-c]quinolin-2-yl}methyl)pyrazin-2-yl]methanol]
- IC50 ([1]; wild type LRRK2): 4.6 nM
- IC50 (mutant G2019S LRRK2; [5]): 3.5 nM

SMILES: Cc1cnc(Cc2nc3cnc4ccc(Cl)cc4c3n2[C@@H]2CCO[C@H](C)C2)cn1 [Example 95A, 8-chloro-2-[(5-methylpyrazin-2-yl)methyl]-1-[(2R,4R)-2-methyltetrahydro-2H-pyran-4-yl]-1H-imidazo[4,5-c]quinoline]
- Km [2, 6]: 15.2 µM
- Vmax [2, 6]: 0.229 nmol/min/mg
- microsomal CLint ([2]; pH 7.4, formation of metabolite 95 (from 95A) or 96B (from 96), human liver microsomes): 15.1 µL/min/mg
- microsomal CLint at 1 μM [3, 7]: 14 µL/min/mg
- half-life at 1 μM [3, 7]: 65.9 min
- microsomal CLint at 1 μM ([3]; individual substrates, 1 μM): 16 µL/min/mg
- half-life at 1 μM ([3]; individual substrates, 1 μM): 54.4 min
- IC50 (mutant G2019S LRRK2; [5]): 6.06 nM
- microsomal CLint at 1 μM [4, 7]: 193 µL/min/mg
- half-life at 1 μM [4, 7]: 17.2 min
- microsomal CLint at 1 μM ([4]; individual substrates, 1 μM): 215 µL/min/mg
- half-life at 1 μM ([4]; individual substrates, 1 μM): 15.3 min

SMILES: [2H]C([2H])([2H])c1cnc(Cc2nc3cnc4ccc(Cl)cc4c3n2[C@@H]2CCO[C@H](C)C2)cn1 [Example 96, 8-chloro-2-{[5-(^2H3)methylpyrazin-2-yl]methyl}-1-[(2R,4R)-2-methyltetrahydro-2H-pyran-4-yl]-1H-imidazo[4,5-c]quinoline]
- intrinsic clearance in comparison to undeuterated form (95A) ([2]; human liver microsomes enzyme kinetics): decreased intrinsic clearance
- Rate of metabolite [3, 7]: 1.65 nmol/min/mg
- intrinsic clearance in comparison to undeuterated form (95A) [3, 8]: decreased intrinsic clearance
- rate of metabolite formation in comparison to undeuterated form (95A) [3, 8]: lower rate of metabolite formation
- intrinsic clearance in comparison to undeuterated form (95A) ([3]; individual substrates): decreased intrinsic clearance
- rate of metabolite formation in comparison to undeuterated form (95A) ([3]; individual substrates): lower rate of metabolite (96B) formation
- Rate of metabolite [3, 9]: 1.10 nmol/min/mg
- microsomal CLint at 1 μM [3, 7]: 6.86 µL/min/mg
- half-life at 1 μM [3, 7]: 127 min
- microsomal CLint at 1 μM ([3]; individual substrates, 1 μM): 6.68 µL/min/mg
- half-life at 1 μM ([3]; individual substrates, 1 μM): 90.4 min
- Rate of metabolite [4, 7]: 25.19 nmol/min/mg
- intrinsic clearance in comparison to undeuterated form (95A) [4, 8]: decreased intrinsic clearance
- rate of metabolite formation in comparison to undeuterated form (95A) [4, 8]: lower rate of metabolite formation
- intrinsic clearance in comparison to undeuterated form (95A) ([4]; individual substrates): decreased intrinsic clearance
- rate of metabolite formation in comparison to undeuterated form (95A) ([4]; individual substrates): lower rate of metabolite (96B) formation
- Rate of metabolite [4, 9]: 22.83 nmol/min/mg
- microsomal CLint at 1 μM [4, 7]: 110 µL/min/mg
- half-life at 1 μM [4, 7]: 29.9 min
- microsomal CLint at 1 μM ([4]; individual substrates, 1 μM): 151 µL/min/mg
- half-life at 1 μM ([4]; individual substrates, 1 μM): 21.9 min

SMILES: Cc1cn(Cc2nc3cnc4ccc(Cl)cc4c3n2C2CCOCC2(F)F)nn1 (stereo not drawn) [enantiomer of Example 46, 8-chloro-1-(3,3-difluorotetrahydro-2H-pyran-4-yl)-2-[(4-methyl-1H-1,2,3-triazol-1-yl)methyl]-1H-imidazo[4,5-c]quinoline]
- IC50 ([1]; 1 mM ATP): 21.4 nM
- IC50 (mutant G2019S LRRK2; 1 mM ATP, read-out: LRRK2, G2019S mutant IC50): 16.1 nM
